Experimental data as given in patent US8916702B2 (priority 2012, dated 2014).

What follows are compounds tested on HCV pseudoparticles (genotype 1a HCV E1 and E2 envelope, H77C isolate) (assay: microbe, parasite or virus in culture). Conditions: Hepatitis C virus, Huh-7, 48 h, HCV pseudoparticle infection of Huh7 cells, luciferase 2 days after infection; average of duplicates.
Assay type: cell-based

Structure (SMILES) | EC50
COC(=O)[C@H](CCNC(=O)C(=O)Nc1ccc(-c2ccc(-c3ccccc3)cc2)cc1)NC(=O)c1ccc(Nc2nc(NC3(c4ccc(Cl)cc4)CC3)nc(OCC(F)(F)F)n2)cc1 [Compound 1527] | 0.15 nM
COc1cccc(NC(=O)C(=O)NCC[C@H](NC(=O)c2ccc(Nc3nc(NC4(c5ccc(Cl)cc5)CC4)nc(OCC(F)(F)F)n3)cc2)C(=O)O)c1 [Compound 1270] | 0.13 nM

Same assay, conditions: Hepatitis C virus, Huh-7, 48 h, HCV pseudoparticles (genotype 1a, H77C) in Huh7 cells; average of duplicate; luciferase 2 days after infection

Structure (SMILES) | EC50
C=Cc1ccc(NC(=O)C(=O)NCC[C@H](NC(=O)c2ccc(Nc3nc(NC4(c5ccc(Cl)cc5)CC4)nc(OCC(F)(F)F)n3)cc2)C(=O)OC)cc1 [Compound 3129] | 0.089 nM
Cc1cc(NC(=O)C(=O)N2CCCC(CNC(=O)c3ccc(Nc4nc(NC5(c6ccc(Cl)cc6)CC5)nc(OCC(F)(F)F)n4)cc3)C2)no1 (stereo not drawn) [Compound 3486] | 0.32 nM
COC(=O)[C@H](CCNC(=O)C(=O)Nc1ccc(OC2CCOCC2)cc1)NC(=O)c1ccc(Nc2nc(NC3(c4ccc(Cl)cc4)CC3)nc(OCC(F)(F)F)n2)cc1 [Compound 3325] | 2.4 nM
COC(=O)[C@H](CCNC(=O)C(=O)Nc1ccc(-n2cnc(Cl)c2Cl)cc1)NC(=O)c1ccc(Nc2nc(NC3(c4ccc(Cl)cc4)CC3)nc(OCC(F)(F)F)n2)cc1 [Compound 3124] | 18.2 nM
O=C(NCC[C@H](NC(=O)c1ccc(Nc2nc(NC3(c4ccc(Cl)cc4)CC3)nc(OCC(F)(F)F)n2)cc1)C(=O)O)C(=O)Nc1ccc(Cn2ccnc2)cc1 [Compound 3540] | 26.2 nM

Same assay, conditions: Hepatitis C virus, Huh-7, 48 h, HCV pseudoparticles, Huh7 cells, luciferase 2 days after infection; average of duplicates

Structure (SMILES) | EC50
Cc1nnc(-c2ccc(NC(=O)C(=O)NCC(C)(C)CNC(=O)c3ccc(Nc4nc(NC5(c6ccc(Cl)cc6)CC5)nc(OCC(F)(F)F)n4)cc3)cc2)[nH]1 [Compound 3674] | 0.15 nM

Same assay, conditions: Hepatitis C virus, Huh-7, 48 h, read-out: Activity (EC50 class), HCV pseudoparticle infection of Huh7 cells, luciferase 2 days after infection; EC50 expressed as class A/B

Structure (SMILES) | EC50
CC1CCCC(NC(=O)C(=O)NC[C@H](NC(=O)c2ccc(Nc3nc(NC4(c5ccc(Cl)cc5)CC4)nc(OCC(F)(F)F)n3)cc2)C(=O)O)C1 (stereo partly drawn) [Compound 1087] | 0.01 to 10 nM
O=C(NCC[C@H](NC(=O)c1ccc(Nc2nc(NC3(c4ccc(Cl)cc4)CC3)nc(OCC(F)(F)F)n2)cc1)C(=O)O)C(=O)NCC1CC1c1ccc(F)cc1 (stereo partly drawn) [Compound 1438] | 0.01 to 10 nM
CC(NC(=O)C(=O)NCC[C@H](NC(=O)c1ccc(Nc2nc(NC3(c4ccc(Cl)cc4)CC3)nc(OCC(F)(F)F)n2)cc1)C(=O)O)C1CC1 (stereo partly drawn) [Compound 1440] | 0.01 to 10 nM
Cc1ccc(NC(=O)C(=O)NC[C@H](NC(=O)c2ccc(Nc3nc(NC4(c5ccc(Cl)cc5)CC4)nc(OCC(F)(F)F)n3)cc2)C(=O)O)cc1 [Compound 1360] | 0.01 to 10 nM
COc1ccc(NC(=O)C(=O)NCC[C@H](NC(=O)c2ccc(Nc3nc(NC4(c5ccc(Cl)cc5)CC4)nc(OCC(F)(F)F)n3)cc2)C(=O)O)cc1 [Compound 1274] | 0.01 to 10 nM
CC(C)(C)OC(=O)N1CCC(NC(=O)C(=O)NC[C@H](NC(=O)c2ccc(Nc3nc(NC4(c5ccc(Cl)cc5)CC4)nc(OCC(F)(F)F)n3)cc2)C(=O)O)CC1 [Compound 1079] | 0.01 to 10 nM
COc1ccccc1NC(=O)C(=O)NC[C@H](NC(=O)c1ccc(Nc2nc(NC3(c4ccc(Cl)cc4)CC3)nc(OCC(F)(F)F)n2)cc1)C(=O)O [Compound 1364] | 0.01 to 10 nM
COc1ccccc1CCNC(=O)C(=O)NC[C@H](NC(=O)c1ccc(Nc2nc(NC3(c4ccc(Cl)cc4)CC3)nc(OCC(F)(F)F)n2)cc1)C(=O)O [Compound 1397] | 0.01 to 10 nM
CC(C)(C)OC(=O)N1CCCC(CNC(=O)C(=O)NC[C@H](NC(=O)c2ccc(Nc3nc(NC4(c5ccc(Cl)cc5)CC4)nc(OCC(F)(F)F)n3)cc2)C(=O)O)C1 (stereo partly drawn) [Compound 1468] | 0.01 to 10 nM
O=C(NCC[C@H](NC(=O)c1ccc(Nc2nc(NC3(c4ccc(Cl)cc4)CC3)nc(OCC(F)(F)F)n2)cc1)C(=O)O)C(=O)NCc1c(F)cccc1F [Compound 1190] | 0.01 to 10 nM
COC(=O)[C@H](CNC(=O)C(=O)NCCc1ccccc1)NC(=O)c1ccc(Nc2nc(NC3(c4ccc(Cl)cc4)CC3)nc(OCC(F)(F)F)n2)cc1 [Compound 1284] | 0.01 to 10 nM
COC(=O)[C@H](CNC(=O)C(=O)NCc1ccc(OC)cc1OC)NC(=O)c1ccc(Nc2nc(NC3(c4ccc(Cl)cc4)CC3)nc(OCC(F)(F)F)n2)cc1 [Compound 1137] | 0.01 to 10 nM
CCOC(=O)[C@H](CCCNC(=O)C(N)=O)NC(=O)c1ccc(Nc2nc(NC3(c4ccc(Cl)cc4)CC3)nc(OCC(F)(F)F)n2)cc1 [Compound 1029, (S)-ethyl 5-(2-amino-2-oxoacetamido)-2-(4-(4-(1-(4-chlorophenyl)cyclopropylamino)-6-(2,2,2-trifluoroethoxy)-1,3,5-triazin-2-ylamino)benzamido)pentanoate] | 0.01 to 10 nM
COC(=O)[C@H](CCNC(=O)C(=O)Nc1ccc(-c2ccc(-c3ccccc3)cc2)cc1)NC(=O)c1ccc(Nc2nc(NC3(c4ccc(Cl)cc4)CC3)nc(OCC(F)(F)F)n2)cc1 [Compound 1527] | 0.01 to 10 nM
COC(=O)[C@H](CCNC(=O)C(=O)NCc1ccc(OC)cc1OC)NC(=O)c1ccc(Nc2nc(NC3(c4ccc(Cl)cc4)CC3)nc(OCC(F)(F)F)n2)cc1 [Compound 1147] | 0.01 to 10 nM
COc1cccc(NC(=O)C(=O)NCC[C@H](NC(=O)c2ccc(Nc3nc(NC4(c5ccc(Cl)cc5)CC4)nc(OCC(F)(F)F)n3)cc2)C(=O)O)c1 [Compound 1270] | 0.01 to 10 nM
Cc1ccc(CNC(=O)C(=O)NCC[C@H](NC(=O)c2ccc(Nc3nc(NC4(c5ccc(Cl)cc5)CC4)nc(OCC(F)(F)F)n3)cc2)C(=O)O)c(F)c1 [Compound 1188] | 0.01 to 10 nM
O=C(NCc1cc(F)ccc1F)C(=O)NC[C@H](NC(=O)c1ccc(Nc2nc(NC3(c4ccc(Cl)cc4)CC3)nc(OCC(F)(F)F)n2)cc1)C(=O)O [Compound 1169] | 0.01 to 10 nM
CC(C)(CNC(=O)C(=O)Nc1ccc(CC(=O)N2CCCC2)cc1)CNC(=O)c1ccc(Nc2nc(NC3(c4ccc(Cl)cc4)CC3)nc(OCC(F)(F)F)n2)cc1 [Compound 1592] | 0.01 to 10 nM

Same assay, conditions: Hepatitis C virus, Huh-7, 48 h, read-out: Activity (EC50 class), HCV pseudoparticles, Huh7 cells, luciferase 2 days after infection; average of duplicates

Structure (SMILES) | EC50
CC(C)(CNC(=O)C(=O)Nc1nc2c(Cl)cccc2s1)CNC(=O)c1ccc(Nc2nc(NC3(c4ccc(Cl)cc4)CC3)nc(OCC(F)(F)F)n2)cc1 [Compound 3815] | 0.01 to 10 nM
COC(=O)[C@H](CNC(=O)C(=O)Nc1cccc(-c2nnnn2C)c1)NC(=O)c1ccc(Nc2nc(NC3(c4ccc(Cl)cc4)CC3)nc(OCC(F)(F)F)n2)cc1 [Compound 3731] | 0.01 to 10 nM
COC(=O)[C@H](CNC(=O)C(=O)Nc1cccc(C(=O)Nc2ccccc2)c1)NC(=O)c1ccc(Nc2nc(NC3(c4ccc(Cl)cc4)CC3)nc(OCC(F)(F)F)n2)cc1 [Compound 3691] | 0.01 to 10 nM
COC(=O)[C@H](CNC(=O)C(=O)Nc1cccc(-n2ccnc2)c1)NC(=O)c1ccc(Nc2nc(NC3(c4ccc(Cl)cc4)CC3)nc(OCC(F)(F)F)n2)cc1 [Compound 3734] | 0.01 to 10 nM
Cc1ccc(COc2nc(Nc3ccc(C(=O)NCC(C)(C)CNC(=O)C(=O)Nc4ccc(C)cc4)cc3)nc(NC3(c4ccc(Cl)cc4)CC3)n2)cc1 [Compound 3848] | 0.01 to 10 nM
Cc1nnc(-c2ccc(NC(=O)C(=O)NCC(C)(C)CNC(=O)c3ccc(Nc4nc(NC5(c6ccc(Cl)cc6)CC5)nc(OCC(F)(F)F)n4)cc3)cc2)[nH]1 [Compound 3674] | 0.01 to 10 nM
O=C(NC[C@H](NC(=O)c1ccc(Nc2nc(NC3(c4ccc(Cl)cc4)CC3)nc(OCC(F)(F)F)n2)cc1)C(=O)O)C(=O)Nc1cccc(Cc2ccccc2)c1 [Compound 3770] | 0.01 to 10 nM
CC(C)(CNC(=O)C(=O)Nc1nc2ccc(C(C)(O)O)cc2s1)CNC(=O)c1ccc(Nc2nc(NC3(c4ccc(Cl)cc4)CC3)nc(OCC(F)(F)F)n2)cc1 [Compound 3822] | 0.01 to 10 nM
O=C(NC[C@H](NC(=O)c1ccc(Nc2nc(NC3(c4ccc(Cl)cc4)CC3)nc(OCC(F)(F)F)n2)cc1)C(=O)Cl)C(=O)Nc1cccc(C(=O)c2ccccc2)c1 [Compound 3748] | 0.01 to 10 nM
CNS(=O)(=O)c1cccc(NC(=O)C(=O)NCC[C@H](NC(=O)c2ccc(Nc3nc(NC4(c5ccc(Cl)cc5)CC4)nc(OCC(F)(F)F)n3)cc2)C(=O)O)c1 [Compound 3651] | 0.01 to 10 nM

Same assay, conditions: Hepatitis C virus, Huh-7, read-out: Activity (EC50 class), HCV pseudoparticles (genotype 1a, H77C) in Huh7 cells; EC50 expressed as class A/B

Structure (SMILES) | EC50
Cc1nccn1Cc1ccc(NC(=O)C(=O)NCC[C@H](NC(=O)c2ccc(Nc3nc(NC4(c5ccc(Cl)cc5)CC4)nc(OCC(F)(F)F)n3)cc2)C(=O)O)cc1 [Compound 3542] | 10 to 1000 nM
O=C(NCCCNC(=O)c1ccc(Nc2nc(NC3(c4ccc(Cl)cc4)CC3)nc(OCC(F)(F)F)n2)cc1)C(=O)Nc1ccc(F)cc1 [Compound 3360] | 0.01 to 10 nM
C=Cc1ccc(NC(=O)C(=O)NCC[C@H](NC(=O)c2ccc(Nc3nc(NC4(c5ccc(Cl)cc5)CC4)nc(OCC(F)(F)F)n3)cc2)C(=O)OC)cc1 [Compound 3129] | 0.01 to 10 nM
Cc1cc(NC(=O)C(=O)N2CCCC(CNC(=O)c3ccc(Nc4nc(NC5(c6ccc(Cl)cc6)CC5)nc(OCC(F)(F)F)n4)cc3)C2)no1 (stereo not drawn) [Compound 3486] | 0.01 to 10 nM
CN(CCCNC(=O)c1ccc(Nc2nc(NC3(c4ccc(Cl)cc4)CC3)nc(OCC(F)(F)F)n2)cc1)C(=O)C(=O)Nc1cc(F)cc(F)c1 [Compound 3451] | 0.01 to 10 nM
Cc1nnnn1-c1cc(Nc2nc(NC3(c4ccc(Cl)cc4)CC3)nc(OCC(F)(F)F)n2)ccc1C(=O)NCC(C)(C)CNC(=O)C(N)=O [Compound 3519] | 0.01 to 10 nM
Cc1noc2ccc(NC(=O)C(=O)NCC(C)(C)CNC(=O)c3ccc(Nc4nc(NC5(c6ccc(Cl)cc6)CC5)nc(OCC(F)(F)F)n4)cc3)cc12 [Compound 3339] | 0.01 to 10 nM
O=C(NC/C(=N/C(=O)c1ccc(Nc2nc(NC3(c4ccc(Cl)cc4)CC3)nc(OCC(F)(F)F)n2)cc1)C(=O)O)C(=O)Nc1ccc(C(=O)N2CCOCC2)cc1 [Compound 3166] | 0.01 to 10 nM
COC(=O)[C@H](CCNC(=O)C(=O)Nc1ccc(OC2CCOCC2)cc1)NC(=O)c1ccc(Nc2nc(NC3(c4ccc(Cl)cc4)CC3)nc(OCC(F)(F)F)n2)cc1 [Compound 3325] | 0.01 to 10 nM
Cn1cnc2ccc(NC(=O)C(=O)NCC(C)(C)CNC(=O)c3ccc(Nc4nc(NC5(c6ccc(Cl)cc6)CC5)nc(OCC(F)(F)F)n4)cc3)cc21 [Compound 3341] | 0.01 to 10 nM
COC(=O)[C@H](CCNC(=O)C(=O)Nc1ccc(-n2cnc(Cl)c2Cl)cc1)NC(=O)c1ccc(Nc2nc(NC3(c4ccc(Cl)cc4)CC3)nc(OCC(F)(F)F)n2)cc1 [Compound 3124] | 0.01 to 10 nM
CCOC(=O)/C=C/c1ccc(NC(=O)C(=O)NCC(C)(C)CNC(=O)c2ccc(Nc3nc(NC4(c5ccc(Cl)cc5)CC4)nc(OCC(F)(F)F)n3)cc2)cc1 [Compound 3144] | 0.01 to 10 nM
COC(=O)[C@H](CCNC(=O)C(=O)Nc1ccc(-c2cnco2)cc1)NC(=O)c1ccc(Nc2nc(NC3(c4ccc(Cl)cc4)CC3)nc(OCC(F)(F)F)n2)cc1 [Compound 3122] | 0.01 to 10 nM
COc1cc(OC)nc(-c2ccc(NC(=O)C(=O)NCCC(NC(=O)c3ccc(Nc4nc(NC5(c6ccc(Cl)cc6)CC5)nc(OCC(F)(F)F)n4)cc3)C(=O)O)cc2)n1 (stereo not drawn) [Compound 3523] | 0.01 to 10 nM
CC(CNC(=O)C(=O)Nc1nccs1)CNC(=O)c1ccc(Nc2nc(NC3(c4ccc(Cl)cc4)CC3)nc(OCC(F)(F)F)n2)cc1 (stereo not drawn) [Compound 3468] | 0.01 to 10 nM
O=C(NCC[C@H](NC(=O)c1ccc(Nc2nc(NC3(c4ccc(Cl)cc4)CC3)nc(OCC(F)(F)F)n2)cc1)C(=O)O)C(=O)Nc1ccc(Cn2ccnc2)cc1 [Compound 3540] | 10 to 1000 nM
COC(=O)[C@H](CCNC(=O)C(=O)Nc1ccc(C(C)(C)C)cc1)NC(=O)c1ccc(Nc2nc(NC3(c4ccc(Cl)cc4)CC3)nc(OCC(F)(F)F)n2)cc1 [Compound 3329] | 0.01 to 10 nM
